# Reference: patent US20060154923A1, “N-phenyl-3-cyclopropylpyrazole-4-carbonitriles as ectoparasiticidal agents” (priority 2002, published 2006)
# Read-outs that look alike come from different tables or passages of the source.
# Key:
# Format in all cases: in vivo
# [1] = system: newly emerged larvae of Lucilia sericata, blowfly; experiment: Efficacy against blowfly larvae, treated paper/serum bioassay; settings: for mortality at 0.2 ppm / mortality at 2 ppm / mortality at 20 ppm: Lucilia sericata
# Procedure: Evaluation of Efficacy of Test Compounds Against Blowfly Larvae
# The efficacy of a test compound against newly emerged larvae of Lucilia sericata, blowfly, is evaluated using a treated paper/serum bioassay. In this evaluation, a solution of test compound in acetone is applied to a filter paper disc and the disc is allowed to dry. Bovine serum and about 20 newly emerged blowfly larvae are added to the treated paper disc and the mortality is assessed at 24 h and 48 h. The data are averaged.
# [2] = system: Rhipacephalus sanguineus, adult ticks; experiment: Contact activity against adult ticks, coated glass vial assay
# Procedure: Evaluation of the Efficacy of Test Compounds Against Adult Ticks
# The contact activity of a test compound against Rhipacephalus sanguineus, adult ticks, is evaluated in a coated glass vial assay. In this evaluation, a solution of test compound in acetone is allowed to dry on the interior surface of a 20 mL vial. Five unfed adult ticks are added to the treated vial and mortality is assessed periodically for up to 48 h. All treatments are replicated 2 times. The data are averaged.
# [3] = system: Ctenocephatides felis, adult cat fleas; experiment: Contact activity against adult cat fleas, coated glass vial assay
# Procedure: Evaluation of the Efficacy of Test Compounds Against Adult Cat Fleas
# The contact activity of a test compound against Ctenocephatides felis, adult cat fleas, is evaluated in a coated, glass vial assay. In this evaluation, a solution of test compound in acetone is allowed to dry on the interior surface of a 20 mL vial. Ten unfed adult cat fleas are added to the treated vial and mortality is assessed periodically for up to 48 h. All treatments are replicated 2 times. The data are averaged.
# [4] = Conc. 0.2 ppm, 24 h, blowfly larvae
# [5] = Conc. 0.2 ppm, 48 h, blowfly larvae
# [6] = Conc. 2.0 ppm, 24 h, blowfly larvae
# [7] = Conc. 2.0 ppm, 48 h, blowfly larvae
# [8] = Conc. 20.0 ppm, 24 h, blowfly larvae
# [9] = Conc. 20.0 ppm, 48 h, blowfly larvae
# [10] = 24 h, read-out: % Mortality 24 h
# [11] = 48 h, read-out: % Mortality 48 h
compound,measurement,setting,value
CC1(c2nn(-c3c(Cl)cc(C(F)(F)F)cc3Cl)c(N)c2C#N)CC1(Br)Br (stereo not drawn) [Example 21],% Mortality 24 h,[1]; [4],0%
same,% Mortality 48 h,[1]; [5],0%
same,% Mortality 24 h,[1]; [6],95%
same,% Mortality 48 h,[1]; [7],100%
same,% Mortality 24 h,[1]; [8],90%
same,% Mortality 48 h,[1]; [9],100%
same,% Mortality 4 h,"[2]; Conc. 0.78 ug/cm2, 4 h",10%
same,% Mortality 24 h,"[2]; Conc. 0.78 ug/cm2, 24 h",10%
same,% Mortality 4 h,"[2]; Conc. 7.80 ug/cm2, 4 h",0%
same,% Mortality 24 h,"[2]; Conc. 7.80 ug/cm2, 24 h",40%
same,% Mortality 4 h,"[3]; Conc. 2 ug/cm2, 4 h",0%
same,% Mortality 24 h,"[3]; Conc. 2 ug/cm2, 24 h",0%
CC1(c2nn(-c3c(Cl)cc(C(F)(F)F)cc3Cl)c(Br)c2C#N)CC1(Cl)Cl (stereo not drawn) [Example 29],% Mortality 24 h,[1]; [4],15%
same,% Mortality 48 h,[1]; [5],15%
same,% Mortality 24 h,[1]; [6],100%
same,% Mortality 48 h,[1]; [7],100%
same,% Mortality 24 h,[1]; [8],100%
same,% Mortality 48 h,[1]; [9],100%
same,% Mortality 4 h,"[2]; Conc. 0.78 ug/cm2, 4 h",0%
same,% Mortality 24 h,"[2]; Conc. 0.78 ug/cm2, 24 h",40%
same,% Mortality 4 h,"[2]; Conc. 7.80 ug/cm2, 4 h",20%
same,% Mortality 24 h,"[2]; Conc. 7.80 ug/cm2, 24 h",60%
same,% Mortality 4 h,"[3]; Conc. 0.02 ug/cm2, 4 h",10%
same,% Mortality 24 h,"[3]; Conc. 0.02 ug/cm2, 24 h",100%
same,% Mortality 4 h,"[3]; Conc. 0.2 ug/cm2, 4 h",20%
same,% Mortality 24 h,"[3]; Conc. 0.2 ug/cm2, 24 h",100%
same,% Mortality 4 h,"[3]; Conc. 2 ug/cm2, 4 h",50%
same,% Mortality 24 h,"[3]; Conc. 2 ug/cm2, 24 h",100%
CC1(c2nn(-c3c(Cl)cc(C(F)(F)F)cc3Cl)c(Cl)c2C#N)CC1(Br)Br (stereo not drawn) [Example 20],% Mortality 24 h,[1]; [4],0%
same,% Mortality 48 h,[1]; [5],0%
same,% Mortality 24 h,[1]; [6],100%
same,% Mortality 48 h,[1]; [7],100%
same,% Mortality 24 h,[1]; [8],100%
same,% Mortality 48 h,[1]; [9],100%
same,% Mortality 4 h,"[2]; Conc. 0.78 ug/cm2, 4 h",0%
same,% Mortality 24 h,"[2]; Conc. 0.78 ug/cm2, 24 h",20%
same,% Mortality 4 h,"[2]; Conc. 7.80 ug/cm2, 4 h",20%
same,% Mortality 24 h,"[2]; Conc. 7.80 ug/cm2, 24 h",50%
same,% Mortality 4 h,"[3]; Conc. 2 ug/cm2, 4 h",20%
same,% Mortality 24 h,"[3]; Conc. 2 ug/cm2, 24 h",100%
CN(C)c1c(C#N)c(C2(C)CC2(Cl)Cl)nn1-c1c(Cl)cc(C(F)(F)F)cc1Cl (stereo not drawn) [Example 32],% Mortality 24 h,[1]; [4],0%
same,% Mortality 48 h,[1]; [5],0%
same,% Mortality 24 h,[1]; [6],0%
same,% Mortality 48 h,[1]; [7],0%
same,% Mortality 24 h,[1]; [8],91%
same,% Mortality 48 h,[1]; [9],96%
same,% Mortality 4 h,"[2]; Conc. 0.78 ug/cm2, 4 h",0%
same,% Mortality 24 h,"[2]; Conc. 0.78 ug/cm2, 24 h",60%
same,% Mortality 4 h,"[2]; Conc. 7.80 ug/cm2, 4 h",0%
same,% Mortality 24 h,"[2]; Conc. 7.80 ug/cm2, 24 h",30%
same,% Mortality 4 h,"[3]; Conc. 2 ug/cm2, 4 h",0%
same,% Mortality 24 h,"[3]; Conc. 2 ug/cm2, 24 h",100%
CC1(c2nn(-c3c(Cl)cc(C(F)(F)F)cc3Cl)c(Br)c2C#N)CC1(Br)Br (stereo not drawn) [Example 22],% Mortality 24 h,[1]; [4],0%
same,% Mortality 48 h,[1]; [5],0%
same,% Mortality 24 h,[1]; [6],100%
same,% Mortality 48 h,[1]; [7],100%
same,% Mortality 24 h,[1]; [8],100%
same,% Mortality 48 h,[1]; [9],100%
same,% Mortality 4 h,"[2]; Conc. 0.78 ug/cm2, 4 h",20%
same,% Mortality 24 h,"[2]; Conc. 0.78 ug/cm2, 24 h",30%
same,% Mortality 4 h,"[2]; Conc. 7.80 ug/cm2, 4 h",0%
same,% Mortality 24 h,"[2]; Conc. 7.80 ug/cm2, 24 h",60%
same,% Mortality 4 h,"[3]; Conc. 2 ug/cm2, 4 h",0%
same,% Mortality 24 h,"[3]; Conc. 2 ug/cm2, 24 h",100%
CC1(c2nn(-c3c(Cl)cc(C(F)(F)F)cc3Cl)cc2C#N)CC1(Br)Br (stereo not drawn) [Example 14],% Mortality 24 h,[1]; [4],50%
same,% Mortality 48 h,[1]; [5],50%
same,% Mortality 24 h,[1]; [6],100%
same,% Mortality 48 h,[1]; [7],100%
same,% Mortality 24 h,[1]; [8],95%
same,% Mortality 48 h,[1]; [9],100%
same,% Mortality 4 h,"[2]; Conc. 0.78 ug/cm2, 4 h",40%
same,% Mortality 24 h,"[2]; Conc. 0.78 ug/cm2, 24 h",40%
same,% Mortality 4 h,"[2]; Conc. 7.80 ug/cm2, 4 h",50%
same,% Mortality 24 h,"[2]; Conc. 7.80 ug/cm2, 24 h",80%
same,% Mortality 4 h,"[3]; Conc. 2 ug/cm2, 4 h",10%
same,% Mortality 24 h,"[3]; Conc. 2 ug/cm2, 24 h",100%
CC1C(Cl)(Cl)C1(C)c1nn(-c2c(Cl)cc(C(F)(F)F)cc2Cl)cc1C#N (stereo not drawn) [Example 7],% Mortality 24 h,[1]; [6],0%
same,% Mortality 48 h,[1]; [7],0%
same,% Mortality 24 h,[1]; [8],77%
same,% Mortality 48 h,[1]; [9],90%
same,% Mortality 4 h,"[2]; Conc. 0.78 ug/cm2, 4 h",0%
same,% Mortality 24 h,"[2]; Conc. 0.78 ug/cm2, 24 h",10%
same,% Mortality 4 h,"[2]; Conc. 7.80 ug/cm2, 4 h",10%
same,% Mortality 24 h,"[2]; Conc. 7.80 ug/cm2, 24 h",80%
same,% Mortality 4 h,"[3]; Conc. 2 ug/cm2, 4 h",0%
same,% Mortality 24 h,"[3]; Conc. 2 ug/cm2, 24 h",100%
"CC1(c2nn(-c3c(Cl)cc(C(F)(F)F)cc3Cl)c(N)c2C#N)CC1(Cl)Cl (stereo not drawn) [Example 19, 5-Amino-3-(2,2-dichloro-1-methylcyclopropyl)-1-[2,6-dichloro-4-(trifluoromethyl)phenyl]-1H-pyrazole-4-carbonitrile]",mortality at 0.2 ppm,"[1]; Conc. 0.2 ppm, 24 h, blowfly larvae, read-out: % Mortality 24 h",0%
same,mortality at 0.2 ppm,"[1]; Conc. 0.2 ppm, 48 h, blowfly larvae, read-out: % Mortality 48 h",0%
same,mortality at 2 ppm,"[1]; Conc. 2.0 ppm, 24 h, blowfly larvae, read-out: % Mortality 24 h",100%
same,mortality at 2 ppm,"[1]; Conc. 2.0 ppm, 48 h, blowfly larvae, read-out: % Mortality 48 h",100%
same,mortality at 20 ppm,"[1]; Conc. 20.0 ppm, 24 h, blowfly larvae, read-out: % Mortality 24 h",75%
same,mortality at 20 ppm,"[1]; Conc. 20.0 ppm, 48 h, blowfly larvae, read-out: % Mortality 48 h",95%
same,% Mortality 4 h,"[2]; Conc. 0.78 ug/cm2, 4 h",0%
same,% Mortality 24 h,"[2]; Conc. 0.78 ug/cm2, 24 h",20%
same,% Mortality 4 h,"[2]; Conc. 7.80 ug/cm2, 4 h",40%
same,% Mortality 24 h,"[2]; Conc. 7.80 ug/cm2, 24 h",70%
same,% Mortality 4 h,"[3]; Conc. 2 ug/cm2, 4 h",0%
same,% Mortality 24 h,"[3]; Conc. 2 ug/cm2, 24 h",10%
CC1(c2nn(-c3c(Cl)cc(C(F)(F)F)cc3Cl)c(I)c2C#N)CC1(Cl)Cl (stereo not drawn) [Example 31],% Mortality 24 h,[1]; [4],0%
same,% Mortality 48 h,[1]; [5],0%
same,% Mortality 24 h,[1]; [6],95%
same,% Mortality 48 h,[1]; [7],100%
same,% Mortality 24 h,[1]; [8],97%
same,% Mortality 48 h,[1]; [9],100%
same,% Mortality 4 h,"[2]; Conc. 0.78 ug/cm2, 4 h",10%
same,% Mortality 24 h,"[2]; Conc. 0.78 ug/cm2, 24 h",20%
same,% Mortality 4 h,"[2]; Conc. 7.80 ug/cm2, 4 h",50%
same,% Mortality 24 h,"[2]; Conc. 7.80 ug/cm2, 24 h",50%
same,% Mortality 4 h,"[3]; Conc. 2 ug/cm2, 4 h",20%
same,% Mortality 24 h,"[3]; Conc. 2 ug/cm2, 24 h",100%
"N#Cc1nn(-c2c(Cl)cc(C(F)(F)F)cc2Cl)c(N)c1[S+]([O-])C(F)(F)F (stereo not drawn) [Standard, Fipronil, reference compound]",mortality at 0.2 ppm,[1]; [10],0%
same,mortality at 2 ppm,[1]; [10],100%
same,mortality at 20 ppm,[1]; [10],100%
same,mortality at 0.2 ppm,[1]; [11],100%
same,mortality at 2 ppm,[1]; [11],100%
same,mortality at 20 ppm,[1]; [11],100%
same,% Mortality 4 h,"[2]; Conc. 0.78 ug/cm2, 4 h",90%
same,% Mortality 24 h,"[2]; Conc. 0.78 ug/cm2, 24 h",100%
same,% Mortality 4 h,"[2]; Conc. 7.80 ug/cm2, 4 h",100%
same,% Mortality 24 h,"[2]; Conc. 7.80 ug/cm2, 24 h",100%
same,% Mortality 4 h,"[3]; Conc. 0.02 ug/cm2, 4 h",0%
same,% Mortality 24 h,"[3]; Conc. 0.02 ug/cm2, 24 h",100%
same,% Mortality 4 h,"[3]; Conc. 0.2 ug/cm2, 4 h",10%
same,% Mortality 24 h,"[3]; Conc. 0.2 ug/cm2, 24 h",100%
same,% Mortality 4 h,"[3]; Conc. 2 ug/cm2, 4 h",30%
same,% Mortality 24 h,"[3]; Conc. 2 ug/cm2, 24 h",100%
